In patent US20210122763A1, “OGA INHIBITOR COMPOUNDS” (Janssen Pharmaceutica NV, priority 2018, published 2021):

Tests used:
[1] = target: T1, recombinant human Meningioma Expressed Antigen 5 (MGEA5), also referred to as O-GlcNAcase (OGA) (Homo sapiens, UniProt O60502); assay: OGA biochemical assay (inhibition of FM-GlcNAc hydrolysis, fluorescence); conditions: for Emax: read-out: Enzymatic Emax (%); for IC50: read-out: Enzymatic hOGA, pIC50 (converted)
T1 construct: Full length OGA enzyme was purchased at OriGene (cat #TP322411); purchased OriGene TP322411
T1 sequence (O60502 1-916): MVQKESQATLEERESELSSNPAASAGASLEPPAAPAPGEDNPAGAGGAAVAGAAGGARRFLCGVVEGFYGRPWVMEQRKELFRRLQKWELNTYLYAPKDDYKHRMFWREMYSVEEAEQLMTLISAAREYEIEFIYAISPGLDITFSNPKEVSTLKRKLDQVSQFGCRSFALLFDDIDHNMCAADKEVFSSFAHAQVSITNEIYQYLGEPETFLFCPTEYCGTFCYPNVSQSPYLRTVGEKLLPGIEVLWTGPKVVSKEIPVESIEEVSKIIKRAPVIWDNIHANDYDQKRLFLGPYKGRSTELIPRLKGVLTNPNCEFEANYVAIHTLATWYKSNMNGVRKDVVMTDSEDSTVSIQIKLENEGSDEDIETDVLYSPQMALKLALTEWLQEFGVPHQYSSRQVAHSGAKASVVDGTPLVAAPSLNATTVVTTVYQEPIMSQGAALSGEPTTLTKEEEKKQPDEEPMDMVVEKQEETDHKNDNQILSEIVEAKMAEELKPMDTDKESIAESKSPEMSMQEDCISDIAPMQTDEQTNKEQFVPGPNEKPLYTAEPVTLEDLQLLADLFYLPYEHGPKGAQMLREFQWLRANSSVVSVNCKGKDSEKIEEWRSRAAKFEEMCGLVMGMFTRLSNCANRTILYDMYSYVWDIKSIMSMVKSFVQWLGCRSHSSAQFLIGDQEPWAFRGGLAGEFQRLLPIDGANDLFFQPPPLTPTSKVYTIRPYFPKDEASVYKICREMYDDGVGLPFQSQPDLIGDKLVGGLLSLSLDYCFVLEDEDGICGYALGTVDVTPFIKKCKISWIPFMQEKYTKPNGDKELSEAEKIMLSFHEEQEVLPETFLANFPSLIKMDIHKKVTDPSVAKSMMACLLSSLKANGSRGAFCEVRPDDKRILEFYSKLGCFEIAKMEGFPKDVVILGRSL
From the text: The assay is based on the inhibition of the hydrolysis of fluorescein mono-B-D-N-Acetyl-Glucosamine (FM-GcNAc) (Mariappa et al. 2015, Biochem J470:255) by the recombinant human Meningioma Expressed Antigen 5 (MGEA5), also referred to as O-GlcNAcase (OGA). The hydrolysis FM-GlcNAc (Marker Gene technologies, cat #M1485) results in the formation of B-D-N-glucosamineacetate and fluorescein. The fluorescence of the latter can be measured at excitation wavelength 485 nm and emission wavelength 538 nm. An increase in enzyme activity results in anincrease in fluorescence signal. Full length OGA enzyme was purchased at OriGene (cat #TP322411). The enzyme was stored in 25 mM Tris.HCl, pH 7.3, 100 mM glycine, 10% glycerol at −20° C. Thiamet G and GlcNAcStatin were tested as reference compounds (Yuzwa et al. 2008 Nature Chemical Biology 4:483; Yuzwa et al. 2012 Nature Chemical Biology 8:393). The assay was performed in 200 mM Citrate/phosphate buffer supplemented with 0.005% Tween-20. 35.6 g Na2HPO4 2H2O (Sigma, #C0759) were dissolved in 1 L water to obtain a 200 mM solution. 19.2 g citric acid (Merck, #1.06580) was dissolved in 1 L water to obtain a 100 mM solution. pH of the sodiumphosphate solution was adjusted with the citric acid solution to 7.2. The buffer to stop the reaction consists of a 500 mM Carbonate buffer, pH 11.0. 734 mg FM-GlcNAc were dissolved in 5.48 mL DMSO to obtain a 250 mM solution and was stored at −20° C. OGA was used at a 2 nM concentration and FM-GcNAc at a 100 uM final concentration. Dilutions were prepared in assay buffer.
50 nl of a compound dissolved in DMSO was dispensed on Black Proxiplate™ 384 Plus Assay plates (Perkin Elmer, #6008269) and 3 μl fl-OGA enzyme mix added subsequently. Plates were pre-incubated for 60 min at room temperature and then 2 μl FM-GlcNAc substrate mix added.
Plates were briefly centrifuged for 1 min at 1000 rpm and incubate at room temperature for 6 h. To stop the reaction 5 μl STOP buffer were added and plates centrifuge again 1 min at 1000 rpm. Fluorescence was quantified in the Thermo Scientific Fluoroskan Ascent or the PerkinElmer EnVision with excitation wavelength 485 nm and emission wavelength 538 nm.
For analysis a best-fit curve is fitted by a minimum sum of squares method. From this an IC50 value and Hill coefficient was obtained. High control (no inhibitor) and low control (saturating concentrations of standard inhibitor) were used to define the minimum and maximum values.

OGA = target: T2, OGA (Homo sapiens, UniProt O60502); assay: OGA cellular assay (ICC detection of O-GlcNAcylated proteins in HEK293 cells inducible for P301L mutant human Tau); type: cell-based; conditions: 6 hours incubation; for Emax: HEK293, HEK293 cells inducible for P301L mutant human Tau, maximum = Thiamet G 200 uM; for EC50: HEK293 cells inducible for P301L mutant human Tau, read-out: Cellular hOGA, pEC50 (converted)
T2 construct: HEK293 cells inducible for P301L mutant human Tau (isoform 2N4R) were established at Janssen; endogenous in cells; host or cells: HEK293 cells inducible for P301L mutant human Tau (2N4R)
T2 sequence (O60502 1-916): T1 sequence (O60502 1-916)
Procedure: HEK293 cells inducible for P301L mutant human Tau (isoform 2N4R) were established at Janssen. Thiamet-G was used for both plate validation (high control) and as reference compound (reference EC50 assay validation). OGA inhibition is evaluated through the immunocytochemical (ICC) detection of O-GlcNAcylated proteins by the use of a monoclonal antibody (CTD110.6; Cell Signaling, #9875) detecting 0-GlcNAcylated residues as previously described (Dorfmueller et al. 2010 Chemistry & biology, 17:1250). Inhibition of OGA will result in an increase of 0-GlcNAcylated protein levels resulting in an increased signal in the experiment. Cell nuclei are stained with Hoechst to give a cell culture quality control and a rough estimate of immediate compounds toxicity, if any. ICC pictures are imaged with a Perkin Elmer Opera Phenix plate microscope and quantified with the provided software Perkin Elmer Harmony 4.1.
Cells were propagated in DMEM high Glucose (Sigma, #D5796) following standard procedures. 2 days before the cell assay cells are split, counted and seeded in Poly-D-Lysine (PDL) coated 96-wells (Greiner, #655946) plate at a cell density of 12,000 cells per cm^2 (4,000 cells per well) in 100p of Assay Medium (Low Glucose medium is used to reduce basal levels of GlcNAcylation) (Park et al. 2014 The Journal of biological chemistry 289:13519). At the day of compound test medium from assay plates was removed and replenished with 90 μl of fresh Assay Medium. 10 μl of compounds at a 10 fold final concentration were added to the wells. Plates were centrifuged shortly before incubation in the cell incubator for 6 hours. DMSO concentration was set to 0.2%. Medium is discarded by applying vacuum. For staining of cells medium was removed and cells washed once with 100 μl D-PBS (Sigma, #D8537). From next step onwards unless other stated assay volume was always 50p and incubation was performed without agitation and at room temperature. Cells were fixed in 50 μl of a 4% paraformaldehyde (PFA, Alpha aesar, #043368) PBS solution for 15 minutes at room temperature. […] Before analysis samples were washed 2 times manually for 5 minutes in ICC base buffer.
Imaging is performed using Perkin Elmer Phenix Opera using a water 20× objective and recording 9 fields per well. Intensity readout at 488 nm is used as a measure of O-GlcNAcylation level of total proteins in wells. To assess potential toxicity of compounds nuclei were counted using the Hoechst staining. IC50-values are calculated using parametric non-linear regression model fitting. As a maximum inhibition Thiamet G at a 200 uM concentration is present on each plate. In addition, a concentration response of Thiamet G is calculated on each plate.

Row | SMILES | Emax [1] | IC50 [1] | Emax (OGA) | EC50 (OGA)
1 | Cc1cc(OC2CCN([C@H](C)c3nc4c(cc3F)OCCO4)CC2)nc(C)n1 (single isomer, unassigned) [Compound 55] | 97% | 200 nM | 14% | > 1000 nM
2 | Cc1cc(OC2CCN(C(C)c3nc4c(cc3F)OCCO4)CC2)cc(C)n1 (stereo not drawn) [Compound 4] | 99% | 12.6 nM | 76% | 39.8 nM
3 | CC(c1ccc2c(n1)OCCO2)N1CCC(Oc2ccnc(C#N)c2)CC1 (stereo not drawn) [Compound 51] | 100% | 63.1 nM | 60% | 631 nM
4 | Cc1cc(C#N)cnc1OC1CCN(C(C)c2ccc3c(n2)OCCO3)CC1 (stereo not drawn) [Compound 97] | 94% | 398 nM | 20% | > 1000 nM
5 | Cc1cc(OC2CCN(C(C)c3ccc4c(n3)OCCO4)CC2)ncc1C#N (stereo not drawn) [Compound 101] | 94% | 100 nM | 53% | 501 nM
6 | Cc1cc(OC2CCN(C(C)c3nc4c(cc3F)OCCO4)CC2)ccn1 (stereo not drawn) [Compound 162] | 98% | 12.6 nM | 83% | 63.1 nM
7 | Cc1cc(OC2CCN(C(C)c3cc4nc(C)sc4cc3F)CC2)cc(C)n1 (stereo not drawn) [Compound 8] | 100% | 15.8 nM | 89% | 63.1 nM
8 | Cc1cc(OC2CCN(C(C)c3ccc4c(n3)OCCO4)CC2)cc(C(F)F)n1 (stereo not drawn) [Compound 64] | 94% | 31.6 nM | 61% | 316 nM
9 | Cc1cnnc(OC2CCN(C(C)c3ccc4c(n3)OCCO4)CC2)c1 (stereo not drawn) [Compound 77] | 97% | 200 nM | 35% | > 1000 nM
10 | Cc1cc(NC2CCN(C(C)c3ccc4c(n3)OCCO4)CC2)cc(C)n1 (stereo not drawn) [Compound 78] | 99% | 100 nM | 55% | 813 nM
11 | Cc1ncccc1OC1CCN(C(C)c2ccc3c(n2)OCCO3)CC1 (stereo not drawn) [Compound 116] | 96% | 126 nM | 42% | > 1000 nM
12 | Cc1cc(OC2CCN(C(C)c3ccc4c(n3)OCCO4)CC2)cc(OC(C)C)n1 (stereo not drawn) [Compound 124] | 98% | 31.6 nM | 64% | 100 nM

The remaining lines, values ahead:

Row | Emax [1] | IC50 [1] | Emax (OGA) | EC50 (OGA) | SMILES
13 | 96% | 12.6 nM | 75% | 200 nM | CC(c1nc2c(cc1F)OCCO2)N1CCC(Oc2cnc(C(F)(F)F)nc2)CC1 (stereo not drawn) [Compound 168]
14 | 97% | 316 nM | 31% | > 1000 nM | CC(c1ccc2c(n1)OCCO2)N1CCC(Oc2cnc(C(F)(F)F)cn2)CC1 (stereo not drawn) [Compound 114]
15 | 94% | 15.8 nM | 67% | 79.4 nM | CC(c1nc2c(cc1F)OCCO2)N1CCC(Oc2ccnc(C#N)c2)CC1 (stereo not drawn) [Compound 155]
16 | 101% | 10 nM | 68% | 126 nM | Cc1cc(O[C@H]2CCN(C(C)c3ccc4c(n3)OCCO4)C[C@H]2C)cc(C)n1 (stereo partly drawn) [Compound 28]
17 | 100% | 15.8 nM | 65% | 251 nM | Cc1cc(OC2CCN(C(C)c3nc4nc(C)sc4cc3F)CC2)nc(C)n1 (stereo not drawn) [Compound 33]
18 | 101% | 50.1 nM | 55% | 813 nM | Cc1cc(OC2CCN(C(C)c3ccc4sc(C)nc4n3)CC2)cc(C(F)(F)F)n1 (stereo not drawn) [Compound 21]
19 | 94% | 200 nM | 47% | 501 nM | COc1cnccc1OC1CCN(C(C)c2ccc3c(n2)OCCO3)CC1 (stereo not drawn) [Compound 98]
20 | 96% | 12.6 nM | 87% | 51.3 nM | Cc1cc(COC2CCN(C(C)c3nc4c(cc3F)OCCO4)CC2)cc(C(F)(F)F)n1 (stereo not drawn) [Compound 169]
21 | 96% | 100 nM | 59% | 631 nM | Cc1cc(OC2CCN(C(C)c3ccc4c(n3)OCCO4)CC2)ccn1 (stereo not drawn) [Compound 45]
22 | 101% | 6.31 nM | 79% | 63.1 nM | Cc1cc(OC2CCN(C(C)c3nc4c(cc3F)OCCO4)CC2)cc(C(F)(F)F)n1 (stereo not drawn) [Compound 18]
23 | 99% | 398 nM | 39% | > 1000 nM | Cc1cc(OCC2CCN(C(C)c3ccc4c(n3)OCCO4)CC2)cc(C)n1 (stereo not drawn) [Compound 75]
24 | 94% | 20 nM | 80% | 158 nM | Cc1cnc(OC2CCN(C(C)c3nc4c(cc3F)OCCO4)CC2)cc1C (stereo not drawn) [Compound 157]
